In publication PMC6934184, “Selective DNA-PKcs inhibition extends the therapeutic index of localized radiotherapy and chemotherapy” (The Journal of Clinical Investigation, 2019):

Molecular target: T1, ICK (Homo sapiens, UniProt Q9UPZ9)
T1 construct: purchased Thermo Fisher Scientific (Life Technologies) SelectScreen
Test: SelectScreen LanthaScreen
Assay type: binding
Settings: read-out: % displacement
In short: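 NU5455 was profiled across the SelectScreen Broad panel of kinase activity and binding assays. Z'LYTE reactions such as CSF1R ran at apparent Km ATP, while the Adapta CAMK1 assay used ATP listed as 10. Values are given as percent.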

T1 sequence (Q9UPZ9 whole entry): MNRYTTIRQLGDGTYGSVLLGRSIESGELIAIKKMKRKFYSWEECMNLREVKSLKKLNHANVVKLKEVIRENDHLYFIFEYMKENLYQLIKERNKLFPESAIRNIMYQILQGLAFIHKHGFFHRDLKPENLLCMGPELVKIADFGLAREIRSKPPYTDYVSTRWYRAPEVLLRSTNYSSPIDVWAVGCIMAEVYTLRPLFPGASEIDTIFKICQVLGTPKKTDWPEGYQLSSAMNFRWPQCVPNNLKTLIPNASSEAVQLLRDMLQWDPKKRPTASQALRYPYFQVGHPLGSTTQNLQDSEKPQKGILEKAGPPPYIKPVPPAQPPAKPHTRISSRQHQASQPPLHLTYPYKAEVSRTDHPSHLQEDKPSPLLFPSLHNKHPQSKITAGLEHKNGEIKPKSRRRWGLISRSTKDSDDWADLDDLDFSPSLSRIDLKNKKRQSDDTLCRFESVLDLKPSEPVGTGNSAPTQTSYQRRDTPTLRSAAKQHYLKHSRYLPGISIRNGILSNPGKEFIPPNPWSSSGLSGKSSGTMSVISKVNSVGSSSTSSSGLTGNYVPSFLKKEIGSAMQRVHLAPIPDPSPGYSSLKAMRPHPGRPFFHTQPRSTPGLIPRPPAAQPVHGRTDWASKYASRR

With CN(C(=O)CN1CCOCC1)c1ccc2sc3c(-c4cccc5c(=O)cc(N6CC7CCC(C6)O7)oc45)cccc3c2c1 [NU5455] as the molecule, how does the inhibition at 1 µM read?
The inhibition at 1 µM was 0%.
